# Measurements from publication PMC9636434, “Discovery of small molecule agonists of the Relaxin Family Peptide Receptor 2” (Communications Biology, 2022).
# Several values for one entry are separate records, joined by “and”; a condition that tells them apart may be missing. Equal entries are not always repeated. Entries after “also recorded” stand apart in the source; their conditions may differ.
# Assays:
# [1] = target: T1, human PTHR1 (Homo sapiens, UniProt Q03431); test: HitHunter cAMP XS+ assay, cAMP Hunter cell line PTHR1; type: cell-based; details: for RLU: replicates (1),(2)
# T1 sequence (Q03431 27-593): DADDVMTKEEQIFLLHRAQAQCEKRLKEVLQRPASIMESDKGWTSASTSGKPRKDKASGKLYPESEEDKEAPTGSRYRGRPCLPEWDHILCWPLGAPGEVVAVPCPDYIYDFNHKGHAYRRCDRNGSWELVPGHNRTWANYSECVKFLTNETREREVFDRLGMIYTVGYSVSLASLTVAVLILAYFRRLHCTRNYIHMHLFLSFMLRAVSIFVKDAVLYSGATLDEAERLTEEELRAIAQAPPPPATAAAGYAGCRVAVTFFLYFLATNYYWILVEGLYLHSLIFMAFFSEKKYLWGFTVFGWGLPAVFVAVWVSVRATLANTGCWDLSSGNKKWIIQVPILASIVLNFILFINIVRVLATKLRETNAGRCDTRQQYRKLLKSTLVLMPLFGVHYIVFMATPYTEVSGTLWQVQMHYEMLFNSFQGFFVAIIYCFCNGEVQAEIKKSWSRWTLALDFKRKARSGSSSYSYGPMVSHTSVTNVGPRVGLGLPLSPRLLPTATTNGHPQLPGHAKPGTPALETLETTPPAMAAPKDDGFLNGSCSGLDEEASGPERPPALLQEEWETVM
# From the text: Results are reported as raw RLU values and represent the
# mean ± SEM of 2 technical replicates.
# [2] = system: chimera RXFP2-1 (extracellular domain of RXFP2, transmembrane domain of RXFP1); test: HTRF cAMP assay in HEK293T cells transiently transfected with chimera RXFP2-1; type: cell-based, human
# Method: Fig. 2 6641 is an allosteric agonist of RXFP2. a HEK-RXFP2 cells co-treated with serial dilutions of INSL3 B dimer antagonist and 30 nM INSL3 or 0.28 µM 6641. HTRF cAMP dose-response inhibition curves were normalized to activity without antagonist co-treatment as 0% inhibition. b HTRF cAMP assay in HEK293T cells transiently transfected with WT or chimeric receptors. Chimera RXFP2-1 contains the extracellular domain of RXFP2 and the transmembrane domain of RXFP1, while chimera RXFP1-2 contains the extracellular domain of RXFP1 and the transmembrane domain of RXFP2. For each receptor, cAMP response induced by INSL3 and 6641 was normalized to FSK (2 µM) as 100% efficacy and DMSO vehicle as 0% efficacy. Emax and EC50 were calculated using four parameter nonlinear fit dose-response curves. Results are expressed as mean ± SEM of 3 independent experiments. Diagrams of the chimeric receptors were produced using GPCRdb.org[58], [59].
# Complementary RXFP2-1 and RXFP1-2 chimeric receptors were used to further investigate the involvement of the RXFP2 extracellular and transmembrane domains on 6641 activity. RXFP2-1 has the extracellular domain of RXFP2 and transmembrane domain of RXFP1, and RXFP1-2 is its complement.
# The HTRF Gs dynamic cAMP assay kit (CisBio, Bedford, MA) was used to measure intracellular cAMP accumulation in HEK293T cells (ATCC, Manassas, VA)[56]. […] The cell stock was verified mycoplasma free and authenticated by ATCC. Transient transfection was accomplished by treating cells in a 6-well plate with a mixture of 2 μg plasmid and 6 μL Lipofectamine 2000 (Invitrogen, Waltham, MA) per manufacturer’s protocol and incubating overnight. For cAMP measurement in 96-well format, HEK293T cells stably transfected with human RXFP2 (HEK-RXFP2), human RXFP1 (HEK-RXFP1), mouse Rxfp1 (HEK-Rxfp1) or transiently transfected with human RXFP1-RXFP2 chimeric receptors were seeded between 7500 and 30,000 cells per well, depending on cell line responsiveness, in serum-free DMEM medium and incubated overnight at 37 °C, 5% CO2. After 18 h, cells were treated with a titration of compound, 2 μM forskolin, or DMSO vehicle. Control wells were also treated with a titration of INSL3 (Phoenix Pharmaceuticals, Burlingame, CA) or human recombinant relaxin 2 (Peprotech, Cranbury, NJ). For the RXFP2 antagonist experiment, cells were co-treated with 0.28 μM compound or 30 nM INSL3 and a titration of the INSL3 B dimer antagonist[38],[39]. For the INSL3 allosteric modulation experiment, cells were co-treated with 0.025, 0.0025, or 0.00025 μM of compound and a titration of INSL3. […] Plates were incubated for 1 h at room temperature and the signal was read on a CLARIOstar plate reader (BMG Labtech, Ortenberg, Germany) at 665 and 620 nm emission wavelengths.
# [3] = system: trabecular bone of femur; test: Micro-CT of trabecular bone in femur after 8-week oral treatment; type: in vivo, mouse; set-up: Mat.D / Tb.N / Tb.Th / Tb.Sp / Conn.D: unit not given here
# [4] = femur trabecular bone, 8-week oral treatment, individual mice
structure (smiles),measurement,setting,value
O=C1Nc2ccc(-c3cc(C(F)(F)F)cc(C(F)(F)F)c3)cc2C(=O)N2CCN(C(=O)COc3ccc(OC(F)(F)F)cc3I)C[C@@H]12 [compound 6641],cAMP response through PTHR1,[1]; Hit Hunter cAMP assay,does not activate
same,RLU,[1]; Log [M] -4.70,1080 RLU
same,RLU,[1]; Log [M] -5.18,1000 RLU
same,RLU,[1]; Log [M] -5.65,960 RLU
same,RLU,[1]; Log [M] -6.13,1040 RLU
same,RLU,[1]; Log [M] -6.61,920 RLU and 960 RLU
same,RLU,[1]; Log [M] -7.08,1200 RLU and 1040 RLU
same,RLU,[1]; Log [M] -7.56,1000 RLU and 880 RLU
same,RLU,[1]; Log [M] -8.04,1000 RLU and 920 RLU
same,RLU,[1]; Log [M] -8.52,920 RLU and 1000 RLU
same,RLU,[1]; Log [M] -8.99,800 RLU
same,EC50 (1)-(3),"[2]; 6641, individual experiments",Inactive
same,EC50 (AVERAGE),"[2]; 6641, mean of 3",Inactive
same,Emax (1)-(3),"[2]; individual experiments, FSK (2 µM) = 100% efficacy",Inactive
same,Emax (AVERAGE),"[2]; mean (± SEM) of 3, FSK (2 µM) = 100% efficacy",Inactive; also recorded: did not stimulate cAMP production
same,femur trabecular parameters (micro-CT),"[3]; 10 mg/kg PO 3 times per week, 8 weeks",no changes
same,BV/TV (%),[3]; [4],4.31% and 3.06% and 3.16% and 4.83% and 2.23% and 3.75% and 3.15% and 4.04% and 1.79% and 1.82% and 3.85% and 4.53% and 2.18% and 3.86% and 3.36%
same,Conn.D,[3]; [4],30.1255 and 5.8494 and 15.74 and 19.1725 and 7.6938 and 27.3442 and 18.8338 and 25.1693 and 0 and -0.6363 and 15.6001 and 25.2137 and 3.3792 and 27.5856 and 14.5139
same,Mat.D,[3]; [4],834.454 and 848.06 and 875.94 and 870.004 and 796.836 and 823.449 and 732.807 and 765.822 and 734.474 and 726.404 and 778.428 and 781.83 and 731.073 and 806.374 and 872.538
same,Tb.N,[3]; [4],3.0955 and 3.1972 and 2.9789 and 2.9022 and 2.8329 and 3.2718 and 2.9757 and 3.3227 and 2.8446 and 3.0319 and 3.0922 and 3.1695 and 2.9848 and 3.092 and 2.9537
same,Tb.Sp,[3]; [4],0.3236 and 0.3094 and 0.3391 and 0.3456 and 0.3545 and 0.3064 and 0.3348 and 0.3029 and 0.3454 and 0.3314 and 0.3266 and 0.317 and 0.3334 and 0.3226 and 0.3354
same,Tb.Th,[3]; [4],0.0422 and 0.0404 and 0.0416 and 0.0484 and 0.033 and 0.037 and 0.035 and 0.0363 and 0.0299 and 0.0308 and 0.0384 and 0.0447 and 0.0326 and 0.0382 and 0.0437
